Results on four compounds are retold here after BindingDB's records for doi:10.1016/s0196-9781(98)00023-0 (Hungarian Academy of Sciences, 1998).

For experiment [1], the target named is Delta-type opioid receptor (Rattus norvegicus, UniProt P33533).
A further experiment addresses Mu-type opioid receptor (Rattus norvegicus, UniProt P33535).

SMILES strings stand for the structures. Several values for one entry are separate records, joined by “and”; a condition that tells them apart may be missing. Equal entries are not always repeated. Non-standard residues stand in square brackets, D forms with d. Residues, ends and D or L forms follow the SMILES beside them. Tic = O=C(O)[C@@H]1Cc2ccccc2CN1

Chain of Delta-type opioid receptor (P33533 whole entry): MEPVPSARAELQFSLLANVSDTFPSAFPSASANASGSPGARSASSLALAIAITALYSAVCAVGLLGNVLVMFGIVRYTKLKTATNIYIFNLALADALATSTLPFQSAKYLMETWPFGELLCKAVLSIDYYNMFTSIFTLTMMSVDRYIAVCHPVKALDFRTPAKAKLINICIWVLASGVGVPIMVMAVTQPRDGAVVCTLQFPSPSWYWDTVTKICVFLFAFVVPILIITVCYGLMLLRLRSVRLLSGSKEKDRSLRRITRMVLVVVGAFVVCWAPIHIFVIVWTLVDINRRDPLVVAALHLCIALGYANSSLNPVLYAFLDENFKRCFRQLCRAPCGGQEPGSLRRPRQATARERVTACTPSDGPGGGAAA
Chain of Mu-type opioid receptor (P33535 whole entry): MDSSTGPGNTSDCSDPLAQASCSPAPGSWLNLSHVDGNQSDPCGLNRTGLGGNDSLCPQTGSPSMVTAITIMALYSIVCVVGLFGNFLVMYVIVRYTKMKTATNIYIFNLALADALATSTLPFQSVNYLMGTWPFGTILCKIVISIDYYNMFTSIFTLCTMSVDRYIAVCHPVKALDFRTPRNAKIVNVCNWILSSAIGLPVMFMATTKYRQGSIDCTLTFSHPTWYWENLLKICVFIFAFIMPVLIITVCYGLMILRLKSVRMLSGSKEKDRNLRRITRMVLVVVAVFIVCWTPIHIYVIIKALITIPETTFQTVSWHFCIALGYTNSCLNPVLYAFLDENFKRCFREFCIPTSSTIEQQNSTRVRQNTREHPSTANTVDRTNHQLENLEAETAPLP

As to `Oc1ccc2c3c1OC1c4[nH]c5ccccc5c4CC4(O)[C@H](C2)N(CC2CC2)CCC314` (some centres undefined) [NALTRINDOLE], the Ki in experiment [1] is 10.8 nM and 25.7 nM.
On the same count and under the same terms, the result for `CC(C)C[C@H](NC(=O)[C@H](Cc1ccccc1)NC(=O)CNC(=O)[C@@H](CO)NC(=O)[C@@H](N)Cc1ccc(O)cc1)C(=O)N[C@H](C(=O)O)[C@@H](C)O` [DSLET-OH] reads 7.34 nM and 8.71 nM.
Consider `COc1cccc2c1[C@]13CCN(CC4CC4)C(C2)[C@]1(OC)CCC(=O)C3`, for which the Ki at Mu-type opioid receptor is 4.59 nM and 7.23 nM.
For the compound `N[C@@H](Cc1ccc(O)cc1)C(=O)N1Cc2ccccc2C[C@H]1C(=O)N[C@@H](Cc1ccccc1)C(=O)N[C@@H](Cc1ccccc1)C(=O)O` [TIPP] (H-Y[Tic]FF-OH), in experiment [1], the inhibition constant (Ki) is 9150 nM and 1700 nM.

A word on the Ki: it is a measure of affinity in units of concentration, obtained from inhibition or displacement. Read a high Ki as lower affinity.
